Measured values: patent US10828275B2, “Selective targeting of procoagulant platelets” (NewSouth Innovations Pty Limited, priority 2014, dated 2020)
“Also recorded” adds a separate entry of the source.

How the values were obtained:
[1] = test system: washed platelets from healthy volunteers; assay: Aspirin study: GSAO+/P-selectin+ necrotic platelets ex vivo (flow cytometry); type: cell-based, human; conditions: 100 mg aspirin daily for 7 days; thrombin and collagen
Experimental: (§1) FIG. 8. Aspirin ingestion sensitizes platelets to cyclophilin D inhibition in human subjects. Platelets from healthy volunteers were examined before and after 7 days of aspirin ingestion. Washed platelets were activated with thrombin (0.1 units/mL) and collagen (5 μg/mL) and GSAO+/P-selectin+ necrotic platelets measured by flow cytometry (part A) and procoagulant potential assessed using the Calibrated Automated Thrombogram (part B).
The standard pharmacological means for prevention of cardiovascular events is by inhibiting platelet cyclooxygenase-1 with aspirin, which suppresses platelet activation.
This study was approved by the University of New South Wales Human Research Ethics Advisory Committee (HC132219), conducted according to the Declaration of Helsinki and all volunteers gave written informed consent. Five healthy volunteers aged 25-45 years were recruited. Prior to starting the study, all volunteers abstained from aspirin or non-steroidal anti-inflammatory drugs (NSAIDS), or other anti-platelet therapies for 14 days. Volunteers received 100 mg enteric coated aspirin daily for 7 days. Blood was collected and washed platelets assessed at baseline, day 0, and again at day 7 of treatment.

[2] = test system: platelets of coronary artery disease patients; assay: Whole blood platelet necrosis assay in coronary artery disease patients; type: in vivo, human; conditions: thrombin or thrombin/collagen stimulation
Excerpt: The whole blood platelet necrosis assay was validated by measuring formation of procoagulant platelets in response to well-known agonist in humans and mice. The assay was able to reproducibly measure platelet propensity to necrosis in healthy human volunteers as well as in patients with ischaemic heart disease within a clinical setting.
Experiments using genetically modified mice indicate that formation of procoagulant platelets is dependent on the cyclophilin D necrosis pathway, but independent of the BclXL apoptosis pathway. In healthy volunteers, the strong platelet agonists, thrombin and collagen, induce formation of procoagulant platelets via a mechanism that is largely independent of protease activated receptors. Patients with coronary artery disease have a heightened procoagulant platelet potential and are sensitised to thrombin and ADP stimulation. The procoagulant platelet potential in these patients is insensitive to aspirin, which targets platelet aggregation, but modified by P2Y12 antagonists.
To examine the effect of CAD on procoagulant platelet potential, non-heparinized bloods from patients with exposure to either aspirin only or no antiplatelet medications within 7 days of the procedure were assayed. […] There were no statistically significant differences between the groups in the absence of agonist stimulation.

[3] = test system: agonist stimulated platelets; assay: Platelet procoagulant potential, Calibrated Automated Thrombogram; type: cell-based, human; conditions: 100 mg aspirin daily for 7 days; thrombin and collagen
Experimental: FIG. 5. […] A. Washed human platelets were untreated or stimulated with thrombin (0.1 units/mL) and collagen (5 μg/mL) or the mitochondrial membrane disrupter CCCP (4 μM). Mitochondrial transmembrane potential was measured using the cationic dye, JC-1. The ratio of distribution of JC-1 between the mitochondria (red fluorescence) and cytosol (green fluorescence) reflects mitochondrial transmembrane potential. […] B-C. […] E. Washed human platelets were preincubated with CaCl2 for 15 min and then untreated or stimulated with thrombin (0.1 units/mL) and collagen (5 μg/mL).
as §1, with “Aspirin ingestion sensitizes platelets to cyclophilin D inhibition in human subjects.” left out
Thrombin generation capacity of agonist stimulated platelets was measured using the Calibrated Automated Thrombogram as described (Hemker et al., 2003) using the Fluorskan Ascent (Thermo Scientific). Agonist stimulated platelets were washed in phosphate-buffered saline and resuspended into the donor's own platelet poor plasma at 5×10^4/μL and recombinant tissue factor ([…], Innovin, Dade Behring) was added. Assays were performed in triplicate.

SMILES: CC(=O)Oc1ccccc1C(=O)O [aspirin]
- change in GSAO+/P-selectin+ necrotic potential of activated platelets [1]: no change
- effect on necrotic / procoagulant platelet potential in patients [2]: did not affect; also recorded: insensitive
- change in procoagulant potential of activated platelets [3]: no change
